Data set [1] deals with T1, Phenylethanolamine N-methyltransferase (Bos taurus, UniProt P10938).
T1 sequence (P10938 whole entry): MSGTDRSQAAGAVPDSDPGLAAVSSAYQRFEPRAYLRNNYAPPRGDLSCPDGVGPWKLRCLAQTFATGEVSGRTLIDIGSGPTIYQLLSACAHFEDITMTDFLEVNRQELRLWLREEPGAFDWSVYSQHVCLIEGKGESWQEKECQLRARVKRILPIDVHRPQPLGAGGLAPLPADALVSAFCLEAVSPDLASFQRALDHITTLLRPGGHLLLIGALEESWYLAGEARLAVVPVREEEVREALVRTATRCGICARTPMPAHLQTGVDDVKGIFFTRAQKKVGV
The data set is described as follows: Inhibitory potency against bovine phenylethanolamine N-Methyltransferase (PNMT).

In data set [2] the target is T2, Alpha-2A adrenergic receptor (Rattus norvegicus, UniProt P22909).
T2 sequence (P22909 whole entry): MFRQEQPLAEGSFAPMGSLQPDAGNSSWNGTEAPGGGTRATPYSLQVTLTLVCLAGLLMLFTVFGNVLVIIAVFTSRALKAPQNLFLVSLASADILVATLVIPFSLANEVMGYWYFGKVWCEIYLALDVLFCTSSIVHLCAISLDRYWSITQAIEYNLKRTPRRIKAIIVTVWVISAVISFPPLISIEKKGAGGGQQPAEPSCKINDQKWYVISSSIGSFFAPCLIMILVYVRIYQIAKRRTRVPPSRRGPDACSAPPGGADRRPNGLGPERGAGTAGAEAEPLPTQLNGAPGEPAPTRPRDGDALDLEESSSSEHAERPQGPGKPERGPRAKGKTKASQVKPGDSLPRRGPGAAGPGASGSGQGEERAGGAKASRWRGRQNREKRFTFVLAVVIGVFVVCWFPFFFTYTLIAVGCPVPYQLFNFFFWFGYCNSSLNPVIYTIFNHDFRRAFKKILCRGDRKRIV
The data set is described as follows: Inhibitory potency against alpha-2-adrenoceptor.

Data set [3] is described as follows: Selectivity expressed as the ratio of Ki of alpha-2-adrenoceptor to that of PNMT.
Substrate in data set [4]: NCC1CNCc2ccccc21
The data set is described as follows: Michaelis-Menten constant was determined against bovine phenylethanolamine N-Methyltransferase (PNMT).

Substrate in data set [5]: NCC1CNCc2ccccc21
The data set is described as follows: (§1) Vmax was determined against bovine phenylethanolamine N-Methyltransferase (PNMT).

Substrate in data set [6]: NC[C@@H](O)c1ccccc1
The data set is described as §1.

In data set [1], `OCC1CNCc2ccccc21` (stereo not drawn) yielded a Ki of 170 µM. On to `Clc1ccc2c(c1Cl)CNCCC2`, for which the Ki in data set [2] was determined as 4.5 µM. On to `Clc1ccc2c(c1Cl)CNCC2`, for which, in data set [2], the Ki is […]. In data set [3], the Selectivity was determined as […]. In data set [2], `Ic1ccc2c(c1)CNCC2` showed a Ki of 0.22 µM.

B1: Phenylethanolamine N-methyltransferase (Bos taurus), P10938 (protein)
chain: MSGTDRSQAAGAVPDSDPGLAAVSSAYQRFEPRAYLRNNYAPPRGDLSCPDGVGPWKLRCLAQTFATGEVSGRTLIDIGSGPTIYQLLSACAHFEDITMTDFLEVNRQELRLWLREEPGAFDWSVYSQHVCLIEGKGESWQEKECQLRARVKRILPIDVHRPQPLGAGGLAPLPADALVSAFCLEAVSPDLASFQRALDHITTLLRPGGHLLLIGALEESWYLAGEARLAVVPVREEEVREALVRTATRCGICARTPMPAHLQTGVDDVKGIFFTRAQKKVGV
Take B1: the Km in data set [4] stood at 47 µM. The Vmax (nM min-1 mg-1) stood at 3.4 in data set [5] and 2.2 in data set [6].
